Converted amounts (≈) assume the structure as drawn.
Assays:
[1] = tested on: Staphylococcus aureus; test: Antibacterial activity against Staphylococcus aureus; assay type: functional; conditions: GC 4543
[2] = tested on: Enterococcus faecalis; test: Antibacterial activity against Enterococcus faecalis; assay type: functional; conditions: GC 4555
[3] = target: T1, UDP-N-acetylmuramoylalanine--D-glutamate ligase (Staphylococcus aureus, UniProt P0A091); test: Inhibitory activity against MurD in Staphylococcus aureus
T1 sequence (P0A091 whole entry): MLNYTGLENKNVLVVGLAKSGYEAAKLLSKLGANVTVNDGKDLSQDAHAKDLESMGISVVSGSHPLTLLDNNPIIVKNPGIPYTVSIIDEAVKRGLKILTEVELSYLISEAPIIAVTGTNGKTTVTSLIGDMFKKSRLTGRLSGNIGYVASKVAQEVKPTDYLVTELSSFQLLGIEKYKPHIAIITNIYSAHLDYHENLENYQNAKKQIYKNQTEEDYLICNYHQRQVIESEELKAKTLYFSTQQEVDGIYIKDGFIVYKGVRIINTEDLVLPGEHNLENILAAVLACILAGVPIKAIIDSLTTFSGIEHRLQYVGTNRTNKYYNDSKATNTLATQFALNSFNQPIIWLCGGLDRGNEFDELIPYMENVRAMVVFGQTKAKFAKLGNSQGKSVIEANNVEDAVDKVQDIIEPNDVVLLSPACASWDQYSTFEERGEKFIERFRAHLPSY

[4] = tested on: Streptococcus pneumoniae; test: Antibacterial activity against penicillin resistant Streptococcus pneumoniae; assay type: functional; conditions: GC 1894
[5] = target: T2, UDP-N-acetylenolpyruvoylglucosamine reductase (Escherichia coli K-12, UniProt P08373); test: Inhibitory activity against MurB in Escherichia coli
T2 sequence (P08373 whole entry): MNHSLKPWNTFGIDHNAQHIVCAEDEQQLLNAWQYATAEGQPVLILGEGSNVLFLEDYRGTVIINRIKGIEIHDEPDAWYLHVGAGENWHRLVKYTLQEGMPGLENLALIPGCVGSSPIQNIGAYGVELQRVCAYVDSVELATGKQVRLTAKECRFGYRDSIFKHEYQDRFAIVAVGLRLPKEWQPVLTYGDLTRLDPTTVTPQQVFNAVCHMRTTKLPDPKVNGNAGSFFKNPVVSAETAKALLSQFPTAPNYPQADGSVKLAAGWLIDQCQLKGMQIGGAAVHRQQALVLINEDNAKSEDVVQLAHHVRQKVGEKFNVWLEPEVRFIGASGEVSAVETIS

[6] = target: T3, UDP-N-acetylglucosamine 1-carboxyvinyltransferase 1 (Staphylococcus aureus subsp. aureus N315, UniProt P84058); test: Inhibitory activity against MurA in Staphylococcus aureus
T3 sequence (P84058 whole entry): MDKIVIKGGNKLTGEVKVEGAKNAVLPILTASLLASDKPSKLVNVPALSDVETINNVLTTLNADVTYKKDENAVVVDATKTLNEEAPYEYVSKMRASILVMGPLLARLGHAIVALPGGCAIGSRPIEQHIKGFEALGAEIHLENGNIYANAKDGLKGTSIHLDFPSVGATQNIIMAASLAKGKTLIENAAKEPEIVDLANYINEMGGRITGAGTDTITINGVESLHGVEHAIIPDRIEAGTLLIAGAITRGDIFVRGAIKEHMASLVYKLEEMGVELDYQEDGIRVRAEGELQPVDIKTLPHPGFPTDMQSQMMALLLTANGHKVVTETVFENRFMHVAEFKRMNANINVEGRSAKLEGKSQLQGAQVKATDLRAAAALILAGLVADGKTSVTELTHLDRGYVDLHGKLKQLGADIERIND

[7] = target: T4, UDP-N-acetylmuramate--L-alanine ligase (Staphylococcus aureus, UniProt O31211); test: Inhibitory activity against MurC in Staphylococcus aureus
T4 sequence (O31211 whole entry): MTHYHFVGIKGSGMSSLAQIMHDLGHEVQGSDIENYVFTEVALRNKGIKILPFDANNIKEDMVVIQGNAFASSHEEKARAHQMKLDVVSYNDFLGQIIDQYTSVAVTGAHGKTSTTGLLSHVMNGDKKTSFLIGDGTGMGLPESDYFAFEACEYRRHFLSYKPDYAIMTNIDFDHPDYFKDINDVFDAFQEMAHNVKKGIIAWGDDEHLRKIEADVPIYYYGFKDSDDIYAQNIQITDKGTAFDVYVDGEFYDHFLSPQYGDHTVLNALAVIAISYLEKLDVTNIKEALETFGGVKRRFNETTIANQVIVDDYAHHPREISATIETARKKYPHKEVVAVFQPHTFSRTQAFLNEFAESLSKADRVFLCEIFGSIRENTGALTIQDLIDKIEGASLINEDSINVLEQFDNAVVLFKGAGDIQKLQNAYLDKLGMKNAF

[8] = tested on: Staphylococcus aureus; test: Antibacterial activity against methicillin resistant Staphylococcus aureus; assay type: functional; conditions: GC 1131
[9] = tested on: Enterococcus faecalis; test: Antibacterial activity against vancomycin resistant Enterococcus faecalis; assay type: functional; conditions: GC 2242
[10] = target: UDP-N-acetylglucosamine 1-carboxyvinyltransferase (Escherichia coli K-12, UniProt P0A749); test: Inhibitory activity against MurA in Escherichia coli
UDP-N-acetylglucosamine 1-carboxyvinyltransferase, sequence (P0A749 whole entry): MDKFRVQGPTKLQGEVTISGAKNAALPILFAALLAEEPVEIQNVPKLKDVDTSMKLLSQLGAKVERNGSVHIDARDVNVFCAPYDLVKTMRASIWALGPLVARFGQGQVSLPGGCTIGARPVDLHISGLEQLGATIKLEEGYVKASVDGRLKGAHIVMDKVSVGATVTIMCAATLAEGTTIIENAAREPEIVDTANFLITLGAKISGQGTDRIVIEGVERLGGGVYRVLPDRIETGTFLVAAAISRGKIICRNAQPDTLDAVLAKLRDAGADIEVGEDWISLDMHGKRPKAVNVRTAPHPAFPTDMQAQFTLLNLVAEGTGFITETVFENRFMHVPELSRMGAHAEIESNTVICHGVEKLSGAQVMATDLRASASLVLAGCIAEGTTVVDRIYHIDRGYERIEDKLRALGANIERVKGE

SMILES | MIC [1] | MIC [2] | IC50 [3] | MIC [4] | IC50 [5] | IC50 [6] | IC50 [7] | MIC [8] | MIC [9] | IC50 [10]
Cc1cc(/C=C2\OC(O)=C(c3cc(Cl)cc(Cl)c3)C2=O)ccc1-c1ccccc1C(F)(F)F | 0.5 µg/mL (≈ 1.02 µM) | 2 µg/mL (≈ 4.07 µM) | 48.9 µM | 0.5 µg/mL (≈ 1.02 µM) | 6.11 µM | 4.07 µM | > 50.9 µM | 0.5 µg/mL (≈ 1.02 µM) | 1 µg/mL (≈ 2.04 µM) | –
COc1cc(/C=C2\OC(O)=C(c3cc(Cl)cc(Cl)c3)C2=O)ccc1-c1ccccc1C(F)(F)F | 0.5 µg/mL (≈ 0.986 µM) | 2 µg/mL (≈ 3.94 µM) | 33.5 µM | 0.5 µg/mL (≈ 0.986 µM) | 3.94 µM | – | 39.4 µM | 0.5 µg/mL (≈ 0.986 µM) | 1 µg/mL (≈ 1.97 µM) | 7.89 µM
